In PMC3306279, “Evaluation of an Antimicrobial L-Amino Acid Oxidase and Peptide Derivatives from Bothropoides mattogrosensis Pitviper Venom” (PLoS ONE, 2012):
Ends that are not written are not given here.

What was measured:
Type in all cases: cell-based
[1] = test system: Klebsiella pneumoniae (ATCC13885); test: MIC determination, broth dilution; settings: fragments, first figure of the cell (µM/µg.mL^−1); Mueller-Hinton broth, 37°C, 12 h; 100% growth inhibition
Experimental: (§1) The minimal inhibitory concentration (MIC) was determined using a standardized dilution method according to NCSLA guidelines. Overnight colonies of Bacillus subtilis (ATCC 6633), Enterococcus faecalis (ATCC 12953), Staphylococcus aureus (ATCC29213), Streptococcus pyogenes (ATCC19615), Escherichia coli (ATCC8739), Klebsiella pneumonia (ATCC13885), Proteus mirabilis (ATCC25933), Pseudomonas aeruginosa ATCC 15442 and Salmonella typhimurium (ATCC14028) were suspended to a turbidity of 0.5 units and further diluted in Mueller-Hinton broth (MH) (Himedia - India). […] Ten microliters of each concentration was added to each corresponding well of a 96-well plate (TPP, Switzerland) and 1×10^5 bacteria in the volume of 90 µL. The plate was incubated at 37°C for 12 h.

[2] = test system: Staphylococcus aureus (ATCC29213); test: MIC determination, broth dilution; settings: fragments, first figure of the cell (µM/µg.mL^−1); Mueller-Hinton broth, 37°C, 12 h; 100% growth inhibition
Experimental: as §1

[3] = test system: Streptococcus pyogenes (ATCC19615); test: MIC determination, broth dilution; settings: fragments, first figure of the cell (µM/µg.mL^−1); Mueller-Hinton broth, 37°C, 12 h; 100% growth inhibition
Experimental: as §1

[4] = test system: Proteus mirabilis (ATCC25933); test: MIC determination, broth dilution; settings: fragments, first figure of the cell (µM/µg.mL^−1); Mueller-Hinton broth, 37°C, 12 h; 100% growth inhibition
Experimental: as §1

[5] = test system: Escherichia coli (ATCC8739); test: MIC determination, broth dilution; settings: fragments, first figure of the cell (µM/µg.mL^−1); Mueller-Hinton broth, 37°C, 12 h; 100% growth inhibition
Experimental: as §1

[6] = test system: Bacillus subtilis (ATCC 6633); test: MIC determination, broth dilution; settings: fragments, first figure of the cell (µM/µg.mL^−1); Mueller-Hinton broth, 37°C, 12 h; 100% growth inhibition
Experimental: as §1

[7] = test system: Enterococcus faecalis (ATCC 12953); test: MIC determination, broth dilution; settings: fragments, first figure of the cell (µM/µg.mL^−1); Mueller-Hinton broth, 37°C, 12 h; 100% growth inhibition
Experimental: as §1

[8] = test system: Pseudomonas aeruginosa (ATCC15442); test: MIC determination, broth dilution; settings: fragments, first figure of the cell (µM/µg.mL^−1); Mueller-Hinton broth, 37°C, 12 h; 100% growth inhibition
Experimental: as §1

[9] = test system: Salmonella typhimurium (ATCC14028); test: MIC determination, broth dilution; settings: fragments, first figure of the cell (µM/µg.mL^−1); Mueller-Hinton broth, 37°C, 12 h; 100% growth inhibition
Experimental: as §1

[10] = test system: human erythrocytes; test: Hemolysis assay; settings: for haemolysis: even at higher concentrations; for Cytotoxicity, Hemolysis assay: sample 512 µg.mL^−1, 24 h by the footnote (method: 1 h, 37°C), relative to 0.1% triton X-100, OD 540 nm, mean ± S.D., three independent experiments
Experimental: Human heparine-blood was obtained from the Universidade Católica de Brasilia cell collection. Collection was obtained with written informed consent. Heparine blood cells were centrifuged at 800 g for 10 min. The erythrocytes were washed three times and re-suspended in 0.1% PBS, pH 7.4. […] The positive control was 0.1% triton X-100 (Sigma-Aldrich, USA). The samples were then centrifuged at 800 g for 10 min. The optical density at 540 nm of the supernatant was measured. The relative optical density compared to that of the suspension treated with 0.1% triton X-100 defined hemolysis percent.

[11] = test system: RAW 264.7 murine macrophage-like cells; test: Cell cytotoxicity, MTT assay; settings: for Cytotoxicity, MTT assay: RAW264.7 cells, sample 512 µg.mL^−1, 24 h, mean ± S.D., three independent experiments; for cell viability: RAW264.7, even at higher concentrations
Experimental: Sterile filtered MTT (3-(4,5-dimethylthiazolyl)-2,5-diphenyl-tetrazoliumbromide; Sigma-Aldrich, USA) solution (5 mg.mL^−1 in PBS) was dark stored at −20°C. RAW 264.7 murine macrophage-like cells, 1×10^5 cells/well was seeded in 96 well plates (TPP, Switzerland), in supplemented DMEM medium (4 mM glutamine, 10% FCS and 100 units.ml^−1 penicillin/streptomycin) containing multiple treatments. Treatments consisted of fractions F-44, F-51, F-68, BmLAO (0–512 µg.mL^−1) and fragments BmLAO-f1, BmLAO-f2 and BmLAO-f3 at different concentrations (0–500 µM). After overnight incubation, 60% of medium was then removed, and 10 µl of the MTT solution was added to each well; the plates were then incubated for 4 h in the presence of 5% CO2 at 37°C. The blue formazan product generated was dissolved by the addition of 100 µl of 100% DMSO (Mallinckrodt Chemical) per well. The plates were then gently swirled for 5 min at room temperature in order to dissolve the precipitate. The absorbance was monitored at 575 nm in a Biotek Powerwave HT microplate spectrophotometer (Bio-Tek Instruments, USA).

Substance	MIC [1]	MIC [2]	MIC [3]	MIC [4]	MIC [5]	MIC [6]	MIC [7]	MIC [8]	MIC [9]	haemolysis [10]	Cytotoxicity, Hemolysis assay [10]	Cytotoxicity, MTT assay [11]	cell viability [11]
IKFEPPLPPKKAH-NH2 [BmLAO-f1]	22 µM	43 µM	43 µM	43 µM	22 µM	43 µM	43 µM	22 µM	43 µM	less than 25%	13.75±3.6 % of control	21.0±3.5 % of control	–
IYYPPNHNFP-NH2 [BmLAO-f3]	110 µM	220 µM	110 µM	110 µM	220 µM	220 µM	110 µM	220 µM	220 µM	less than 25%	9.87±3.1 % of control	11.2±2.1 % of control	over 78%
KKFWEDDG-NH2 [BmLAO-f2]	125 µM	250 µM	125 µM	125 µM	250 µM	250 µM	125 µM	250 µM	–	less than 25%	11.32±2.9 % of control	13.6±4.5 % of control	over 78%
